Measurements: US5202338A, “Dihydroquinoline derivatives, pharmaceutical compositions and methods of use of dihydroquinoline derivatives as modulators of the arachidonic acid cascade” (priority 1990, dated 1993)
Where a name gives a salt, the structure may show the parent alone.

Experiments:
[1] = system: cytochrome C and P 450; assay: Cytochrome C and P450 activities in atherogenic-diet rats; assay type: in vivo; details: atherosclerosis induced by atherogenic diet in rats
From the text: During model-experiments of atherosclerosis induced by atherogenic diet in rats, the pathologic increase of cythochrome C and P 450 enzyme activities is to be observed. This is disadvantageous because these enhanced enzyme activities induce tissular lipid peroxidation, involving all of its well known untoward consequences. As the first step of this chain reaction superoxyde - anion radical is formed from molecular oxygen. Laitar however initiate further few radical reactions.

[2] = system: hyperoxia (95% oxygen and 5% CO2); assay: Hyperoxia-inhibiting effect; assay type: in vivo, rats
Method: CFY rats with an average body weight of 250 g each, belonging to both sexes were kept in an atmosphere of 95% oxygen and 5% CO2. Three treatment groups were formed.
Group 2 (n=25): Hyperoxia was induced as described for Group 1, however, 20 mg/kg body weight/day i.v. Dexamethasone (steroid hormone preparation) was administered during the hyperoxia period. […] Autopsy and histological examinations were performed on the animals died and on the animals sacrificed on the 35th day.
Group 3 (n=25): Hyperoxia was induced as in the Groups mentioned above, but during the period of hyperoxia 65 mg/kg body weight of the compound according to Example 4 was administered i.v. The rate of death amounted to 4% (1 animal).

[3] = system: gastric mucosa; assay: Protection of the gastric mucosa against ethanol; assay type: in vivo, rats; details: anhydrous ethanol + 100 mg/kg by gastric tube; ethanol only 21±0.31%
Method: The protection of the gastric mucosa against the effect of ethanol was investigated. Ten CFY male rats weighing 200 to 220 g each were starved for 18 hours while allowing them to consume water ad libitum. Then, a dose of 50 or 100 mg/kg of body weight of the compound prepared in Example 1 was administered in such a way that the active agent had previously homogenized in an 1% aqueous methylcellulose solution for 1 minute. The substance was administered through a gastric tube. After 30 minutes, 1 ml of anhydrous ethanol each was orally given to the animals. Five minutes later the animals were decapitated under a general anaesthesia, their stomachs were removed, opened along the large curvature and washed with water. Thereafter the stomachs were stretched out and photographed. The alterations found on the gastric mucosa were observed by planimetry. The lesions were given as percentage of the whole surface.

[4] = system: TXB2 formation in human leukocyte homogenate; assay: TXB2 formation from arachidonic acid in human leukocyte homogenate (RIA); assay type: biochemical; details: DMSO control 1.95 ± 0.31
Method: The transformation of arachidonic acid to thromboxane B2 and leukotriene B4 in a human leukocyte homogenate was measured by means of the method published by Tetason, J. E. et al., Brit. J. Pharmacol., 1988 94:528-529, as follows: Fresh blood, from donors who had not ingested aspirin or other drugs for at least 14 days previously, was collected, with EDTA (1.2 mgml^-1) as anticoagulant; erythrocytes were sedimented by addition of 2% methyl cellulose (7.5 ml 100^-1 blood) and incubation for 40 minutes at 37° C. The supernatant containing leukocytes and platelets was removed, diluted two fold with sodium phosphate-buffered saline (0.9% NaCl, pH 7.2, 20 mM phosphate) and centrifuged for 10 minutes at 150 g. The supernatant, containing platelets, was removed and the leukocyte pellet resuspended in 50 ml of ice-cold 0.82% NH4 Cl containing 5 mM KCl (brought to pH 7.4 with 4.4% NaHCO3). This procedure lysed any remaining erythrocytes during 10 minutes incubation on ice. The leukocyte suspension was then centrifuged again (10 minutes, 150 g) and the pellet resuspended in 25 ml sodium phosphate buffer (50 mM, pH 7.0) containing EDTA (1 mM). […]
DMSO was added. […] Reaction products, TXB2 and LTB4, were measured by specific radioimmunoassay (RIA) as published by Salmon, J. A. Prostaglandins, 1978 15: 383-397; and Salmon, J. A. et al., Prostaglandins, 1982, 24:225-235. […]

[5] = system: Erlich ascites tumor; assay: Tumor-inhibiting effect on the Erlich ascites tumor; assay type: in vivo, mice
Method: A daily oral dose of 150 mg/kg of body-weight of the compound prepared in Example 1 was administered to LATI-inbred CFLP male mice weighing 20 to 22 g each for 5 days, then 2×10^6 of Erlich ascites tumour cells were implanted under sterile conditions. Thereafter, the drug-treatment was continued and an examination was carried out on the 16th day following the implantation. An 80% inhibition was observed on the 17th day. The percentage of inhabitation was determined as described by Zs. Pollak in the dissertation entitled "Development of a Radiosensitizing Antioxidant and Use Thereof in the Oncological Practice" pages 44 to 45 and 76 to 82, as cited above.

[6] = system: Wistar rats; assay: Acute toxicity study and determination of LD50; assay type: in vivo
Method: (§1) The Example was carried out in Wistar rats (Lati, Budapest) of both sexes weighing 150-160 g each. Doses of L90 were measured by an analytical balance, for each animal and suspended in 2 ml of paraffine oil while mixing at 60° C. Suspension was then cooled to room temperature and administered through a gastric tube. Animals were fed with standard rat feed (Lati, Budapest) and received water ad libitum. They were kept at a room temperature of 23 to 25° C. The relative humidity of room air amounted to 50-70 percent. Three study groups of animals were formed.
(§2) The animals received a single dose of L90 amounting to 1 g/kg body weight.
(§3) The animals received a single dose of L90 amounting to 5 g/kg body weight.
(§4) The animals received a single dose of 2 ml of paraffine oil (control group).
(§5) Animals were carefully observed on 10 subsequent days, after treatment. On day 11, the animals were sacrificed in general anesthesia. Autopsy of all animals was performed followed by the macroscopic examination of all organs.

[7] = Acute toxicity study and determination of LD50; assay type: in vivo; details: rat, in vivo; oral, Wistar rats of both sexes
Method: as §1, §2, §3, §4, §5

[8] = system: extrinsic bronchial asthma; assay: Investigation of MTDQ in vivo in steroid-dependent asthma patients; design: species or system human
Method: Four women and two men (with an average age of 41 years); between 17 and 56 years participated in this study, who suffered from extrinsic bronchial asthma, and had earlier been treated with at least 20 mg/day of prednisolone (11,17,21-trihydroxypregn-4-ene-3,20-dione) or with an equivalent steroidal hormone since 2 to 15 years of age. During the experimental period, the patients were kept on the treatment commonly used for bronchial asthma, except steroidal hormones.
On admission, their respiratory function characteristics were as follows:
Their sputum became more dilute and easy to eliminate. On auscultation, a soft vesicular respiration was again observed over their lungs. The X-ray picture of the lungs was in agreement with the clinical improvement.
On the fifteenth day of treatment, the respiratory functions were as follows:
The experiment described in Example 10 was repeated, except that daily 300 mg of allopurinol (Milurit®, EGIS Pharmaceutical Works) were daily administered simultaneously with the start of the MTDQ administration. […] In the case of a prolonged treatment, the daily amount of MTDQ could be decreased from 2500 mg to 1000-1200 mg by using this combination.

CC1=CC(C)(C)Nc2ccccc21 [2,2,4-trimethyl-1,2-dihydroquinoline]
Normalization of increased Cytochrome C and P450 activities [1]: did not exert this effect either

CC1(C)C=C(CS(=O)(=O)O)c2ccccc2N1 [2,2-dimethyl-4-methane-sulfonic acid salt-1,2-dihydroquinoline]
Normalization of increased Cytochrome C and P450 activities [1]: did not exert this effect either

NC(=O)c1nc[nH]c1N [4-amino-5-imidozolcarboxidamide]
Normalization of increased Cytochrome C and P450 activities [1]: did not exert this effects

Oc1cc(O)c2c(c1)O[C@H](c1ccc(O)c(O)c1)[C@@H](O)C2 [(+) --Cyanidol]
Normalization of increased Cytochrome C and P450 activities [1]: did not exert this effects

CC(C)(S)[C@@H](N)C(=O)O [D-Pencillamino]
Normalization of increased Cytochrome C and P450 activities [1]: did not exert this effects

C[C@@H]1C[C@H]2[C@@H]3CCC4=CC(=O)C=C[C@]4(C)[C@@]3(F)[C@@H](O)C[C@]2(C)[C@@]1(O)C(=O)CO [Dexamethasone]
Rate of survival ([2]; 20 mg/kg/day i.v. during hyperoxia): did not improve | PGF1C and TXB2 concentrations ([2]; 20 mg/kg/day i.v., compared to physiological parameters): significantly lower | Pathological lesions at autopsy and histology ([2]; 20 mg/kg/day i.v., compared with Group 1): number and severity of the pathological lesions were found less than in Group 1

CC(=O)C(c1ccc2c(c1)C(C)=CC(C)(C)N2)c1ccc2c(c1)C(C)=CC(C)(C)N2 [Example 1, 6,6'-acetylmethine-bis(2,2,4-trimethyl-1,2-dihydroquinoline)]
Gastric mucosa lesions as percentage of the whole surface [3]: 4.2±0.51% | TXB2 ([4]; 20/μM compound): 0.68 ± 0.14 | TXB2 ([4]; 100/μM compound): 0.53 ± 0.08 | Tumor inhibition ([5]; 150 mg/kg oral daily, CFLP male mice, 17th day): 80% | Ascites ml. ([5]; 150 mg/kg, control 15.06 + 2.85): 3.95 + 0.62 ml | number of cells ([5]; 150 mg/kg, control 96.5 × 10^7 /ml): 7.33e+07 mL⁻¹ | Survival and observations ([6]; single oral dose 1 g/kg, day 11): all rats were alive | Mortality ([6]; single oral dose 5 g/kg, n=8, 10 days of observation): Two rats belonging to Group 2 died on day 8 | LD50 at 240 h [7]: > 5000 mg/kg

CC(=O)C(c1ccc2c(c1)C(CS(=O)(=O)O)=CC(C)(C)N2)c1ccc2c(c1)C(CS(=O)(=O)O)=CC(C)(C)N2 [Example 4, sodium salt of 6,6'-acetylmethine-bis(2,2-dimethyl-1,2-dihydroquinoline-4-methanesulfonicacid)]
Rate of death ([2]; 65 mg/kg i.v. during hyperoxia, untreated 50% died): 4% | Pathological lesions at autopsy and histology ([2]; 65 mg/kg i.v., animals sacrificed on 35th day): no pathological lesions were detected

CC1=CC(C)(C)Nc2ccc(Cc3ccc4c(c3)C(C)=CC(C)(C)N4)cc21 [MTDQ, 6,6'-methylene-bis(2,2,4-trimethyl-1,2-dihydroquinoline)]
Omission of steroidal hormone ([8]; MTDQ combined with 300 mg allopurinol daily): the steroidal hormone could immediately be omitted | Daily amount of MTDQ needed in prolonged treatment ([8]; combined with 300 mg allopurinol daily, decreased from 2500 mg): 1000 to 1200 mg | Partial oxygen pressure in the arterial blood ([8]; fifteenth day of treatment, MTDQ 25 mg/kg orally daily, steroid stopped on day 4): 10.9±0.45 kPa | Forced expiratory volume ([8]; fifteenth day of treatment, MTDQ 25 mg/kg orally daily, normal value 2.5 to 2.8): 2.06 ± 0.8 L | Forced vital capacity ([8]; fifteenth day of treatment, MTDQ 25 mg/kg orally daily, normal value 3.5 to 4): 3.78 ± 0.33 L | Clinical improvement ([8]; fifth day, MTDQ 25 mg/kg orally daily): the patients became attack-free

O=C1O[C@H]([C@@H](O)CO)C(O)=C1O [Vitamin C]
Normalization of increased Cytochrome C and P450 activities [1]: did not exert this effects

Vitamin A
Normalization of increased Cytochrome C and P450 activities [1]: did not exert this effects
